In one data set the test system is Lepomis macrochirus. Particulars: acute; mortality.
For another data set, the system named is Daphnia magna. Particulars: chronic/long-term.
A further data set concerns Perdix sp. The note with it: acute; oral; unspecified; mortality.
The test system of another data set is Canidae. Particulars: oral, Dog Other, organ weight.
In a further data set the test system is Oryctolagus sp. Particulars: developmental; development.
A further data set deals with Tagia sp. Particulars: acute; duration: 14 days; mortality.
The test system of a further data set is Apis mellifera. The note with it: acute, mortality.
In the next data set the test system is Oncorhynchus mykiss. Particulars: chronic/long-term.
The next data set relates to Typhlodromus pyri. Put plainly: LR50; higher = less toxic. The note with it: not reported; mortality.

The term NOAEL denotes the highest tested level that showed no adverse finding.

In the case of `CCO/N=C(\CC)C1=C(O)CC(c2c(C)cc(C)cc2C)CC1=O` (stereo unspecified) [Tralkoxydim], the LC50 is greater than 6.1 µg/mL with Lepomis macrochirus; 1020 mg/kg-day with Colinus virginianus (acute, oral, diet, mortality); greater than 1000 mg/kg with Tagia sp.. Besides, the NOEC in the data set on Daphnia magna turned out to be 2.1 mg/L; in the data set with Colinus virginianus (reproduction developmental) it was 14.3 mg/kg-day; in the data set on Oryctolagus sp., 20 mg/kg-day; in the data set on Oncorhynchus mykiss, 4.6 mg/L. Further, the LD50 with Perdix sp. was 2020 mg/kg-day; in the data set on Rattus norvegicus (acute, oral, mortality), 934 mg/kg-day; with Apis mellifera (dermal), greater than 100 µg/piece; in the data set with Apis mellifera (oral, unspecified), greater than 117 µg/piece. The NOAEL in the data set on Canidae (chronic, duration: 1 years) was determined as 0.5 mg/kg-day; in the data set with Canidae (subchronic, duration: 90 days), 0.5 mg/kg-day; in the data set with Rattus norvegicus (developmental, development), 1 mg/kg-day; in the data set on Rattus norvegicus (reproduction developmental, body weight), 18.2 mg/kg-day. In the data set on Typhlodromus pyri, this compound gave an LR50 greater than 450 g/ha.

Values taken from EPA's ToxValDB 9.5 (doi:10.2903/j.efsa.2008.139r).
